Assay results from patent US9062071B2, “Substituted piperidines as HDM2 inhibitors” (Merck Sharp & Dohme Corp, priority 2011, dated 2015).

These compounds were tested against HDM2 protein (Homo sapiens, UniProt Q00987) (assay: fluorescence polarization screening assay (FP IC50)). Conditions: class symbols.
Format: binding
Method: The compounds were evaluated to determine activity at the HDM2 protein by known methods such as the fluorescence polarization screening assay that measures the inhibitory concentration that achieves 50% of maximal activity (FP IC50) and the dissociation constant for inhibitor binding (FP Ki). [Zhang et al., J. Analytical Biochemistry 331: 138-146 (2004)].

Chain of HDM2 protein (Q00987 whole entry): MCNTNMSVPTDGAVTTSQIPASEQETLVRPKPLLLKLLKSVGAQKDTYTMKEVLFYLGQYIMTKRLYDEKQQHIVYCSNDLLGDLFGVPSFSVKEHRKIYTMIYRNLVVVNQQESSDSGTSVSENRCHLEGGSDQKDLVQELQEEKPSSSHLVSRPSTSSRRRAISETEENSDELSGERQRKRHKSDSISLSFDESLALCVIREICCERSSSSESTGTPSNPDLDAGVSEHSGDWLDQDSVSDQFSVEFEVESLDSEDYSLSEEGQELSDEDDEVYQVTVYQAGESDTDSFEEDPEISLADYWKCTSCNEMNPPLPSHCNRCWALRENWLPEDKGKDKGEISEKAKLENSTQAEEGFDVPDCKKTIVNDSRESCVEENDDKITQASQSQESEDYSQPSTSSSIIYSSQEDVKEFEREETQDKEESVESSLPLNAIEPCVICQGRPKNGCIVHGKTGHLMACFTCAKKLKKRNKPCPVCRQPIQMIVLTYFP

| IC50 | Structure (SMILES) |
| --- | --- |
| 101 to 20000 nM | O=C(c1cnccc1C(F)(F)F)N1CCC[C@@](Oc2csc(C(F)(F)F)c2)(C(=O)N2CCc3ccc(Cl)cc3C2)[C@H]1CCN1CCOCC1 [Compound A3, 7-chloro-2-{[(2R,3S)-2-(2-morpholin-4-ylethyl)-1-{[4-(trifluoromethyl)pyridin-3-yl]carbonyl}-3-{[5-(trifluoromethyl)thiophen-3-yl]oxy}piperidin-3-yl]carbonyl}-1,2,3,4-tetrahydroisoquinoline] |
| 101 to 20000 nM | CCC[C@H]1N(C(=O)c2ncccc2C(F)(F)F)CCC[C@@]1(Oc1csc(C(F)(F)F)c1)C(=O)N1CCc2ccc(C(N)=O)cc2C1 [Compound A6, 2-{[(2R,3S)-2-propyl-1-{[3-(trifluoromethyl)pyridin-2-yl]carbonyl}-3-{[5-(trifluoromethyl)thiophen-3-yl]oxy}piperidin-3-yl]carbonyl}-1,2,3,4-tetrahydroisoquinoline-7-carboxamide] |
| 101 to 20000 nM | CCC[C@H]1N(C(=O)c2ncccc2C(F)(F)F)CCC[C@@]1(Oc1csc(C(F)(F)F)c1)C(=O)N1CCc2cc(Cl)ccc2C1CC(C)(C)C#N (stereo partly drawn) [Compound A71, 3-(6-chloro-2-{[(2R,3S)-2-propyl-1-{[3-(trifluoromethyl)pyridin-2-yl]carbonyl}-3-{[5-(trifluoromethyl)thiophen-3-yl]oxy}piperidin-3-yl]carbonyl}-1,2,3,4-tetrahydroisoquinolin-1-yl)-2,2-dimethylpropanenitrile] |
| 101 to 20000 nM | CCC[C@H]1N(C(=O)c2ncccc2C(F)(F)F)CCC[C@@]1(Oc1csc(C(F)(F)F)c1)C(=O)N1CCc2cc(F)ccc2C1 [Compound A48, 6-fluoro-2-{[(2R,3S)-2-propyl-1-{[3-(trifluoromethyl)pyridin-2-yl]carbonyl}-3-{[5-(trifluoromethyl)thiophen-3-yl]oxy}piperidin-3-yl]carbonyl}-1,2,3,4-tetrahydroisoquinoline] |
| 101 to 20000 nM | CCC[C@H]1N(C(=O)c2ncccc2C(F)(F)F)CCC[C@@]1(Oc1csc(C(F)(F)F)c1)C(=O)N1Cc2sccc2CC1C(=O)O (stereo partly drawn) [Compound A171, 6-{[(2R,3S)-2-propyl-1-{[3-(trifluoromethyl)pyridin-2-yl]carbonyl}-3-{[5-(trifluoromethyl)thiophen-3-yl]oxy}piperidin-3-yl]carbonyl}-4,5,6,7-tetrahydrothieno[2,3-c]pyridine-5-carboxylic acid] |
| 1 to 100 nM | CCC[C@H]1N(C(=O)c2ncccc2C(F)(F)F)CCC[C@@]1(Oc1csc(C(F)(F)F)c1)C(=O)N1CCc2cc(Cl)ccc2C1CC(C)(C)C(=O)NS(C)(=O)=O (single isomer, unassigned) [Compound A69] |
| 1 to 100 nM | CCC[C@H]1N(C(=O)c2ncccc2C(F)(F)F)CCC[C@@]1(Oc1csc(C(F)(F)F)c1)C(=O)N1CCc2cc(Cl)ccc2C1CCC(=O)NS(C)(=O)=O (stereo partly drawn) [Compound A61, 3-(6-chloro-2-{[(2R,3S)-2-propyl-1-{[3-(trifluoromethyl)pyridin-2-yl]carbonyl}-3-{[5-(trifluoromethyl)thiophen-3-yl]oxy}piperidin-3-yl]carbonyl}-1,2,3,4-tetrahydroisoquinolin-1-yl)-N-(methylsulfonyl) propanamide] |
| 101 to 20000 nM | CCC[C@H]1N(C(=O)c2ncccc2C(F)(F)F)CCC[C@@]1(Oc1csc(C(F)(F)F)c1)C(=O)N1CCc2sc(Cl)cc2C1CCC(=O)NC (stereo partly drawn) [Compound A27, 3-(2-chloro-5-{[(2R,3S)-2-propyl-1-{[3-(trifluoromethyl)pyridin-2-yl]carbonyl}-3-{[5-(trifluoromethyl)thiophen-3-yl]oxy}piperidin-3-yl]carbonyl}-4,5,6,7-tetrahydrothieno[3,2-c]pyridin-4-yl)-N-methylpropanamide] |
| 1 to 100 nM | CCC[C@H]1N(C(=O)c2ncccc2C(F)(F)F)CCC[C@@]1(Oc1csc(C(F)(F)F)c1)C(=O)N1Cc2ccc(Cl)cc2C[C@@H]1C[C@H](O)C(=O)O [Compound A164, (2S)-3-[(3R)-6-chloro-2-{[(2R,3S)-2-propyl-1-{[3-(trifluoromethyl)pyridin-2-yl]carbonyl}-3-{[5-(trifluoromethyl)thiophen-3-yl]oxy}piperidin-3-yl]carbonyl}-1,2,3,4-tetrahydroisoquinolin-3-yl]-2-hydroxypropanoic acid] |
| 1 to 100 nM | COCCN1CCN(CC[C@H]2N(C(=O)c3ncccc3C(F)(F)F)CCC[C@@]2(Oc2csc(C(F)(F)F)c2)C(=O)N2CCc3cc(Cl)ccc3C2)CC1 [Compound A118, 6-chloro-2-{[(2R,3S)-2-{2-[4-(2-methoxyethyl)piperazin-1-yl]ethyl}-1-{[3-(trifluoromethyl)pyridin-2-yl]carbonyl}-3-{[5-(trifluoromethyl)thiophen-3-yl]oxy}piperidin-3-yl]carbonyl}-1,2,3,4-tetrahydroisoquinoline] |
| 1 to 100 nM | CCC[C@H]1N(C(=O)c2ncccc2C(F)(F)F)CCC[C@@]1(Oc1csc(C(F)(F)F)c1)C(=O)N1CCc2cc(F)ccc2C1CCCCC(=O)O (stereo partly drawn) [Compound A41, 5-(6-fluoro-2-{[(2R,3S)-2-propyl-1-{[3-(trifluoromethyl)pyridin-2-yl]carbonyl}-3-{[5-(trifluoromethyl)thiophen-3-yl]oxy}piperidin-3-yl]carbonyl}-1,2,3,4-tetrahydroisoquinolin-1-yl)pentanoic acid] |

Continued, compound first:

| Structure (SMILES) | IC50 |
| --- | --- |
| CCC[C@H]1N(C(=O)c2ncccc2C(F)(F)F)CCC[C@@]1(Oc1csc(C(F)(F)F)c1)C(=O)N1CCc2sc(Cl)cc2C1CCC(=O)O (stereo partly drawn) [Compound A23, 3-(2-chloro-5-{[(2R,3S)-2-propyl-1-{[3-(trifluoromethyl)pyridin-2-yl]carbonyl}-3-{[5-(trifluoromethyl)thiophen-3-yl]oxy}piperidin-3-yl]carbonyl}-4,5,6,7-tetrahydrothieno[3,2-c]pyridin-4-yl)propanoic acid] | 1 to 100 nM |
| CCC[C@H]1N(C(=O)c2ncccc2C(F)(F)F)CCC[C@@]1(Oc1csc(C(F)(F)F)c1)C(=O)N1CCc2cc(N)ccc2C1 [Compound A11, 2-{[(2R,3S)-2-propyl-1-{[3-(trifluoromethyl)pyridin-2-yl]carbonyl}-3-{[5-(trifluoromethyl)thiophen-3-yl]oxy}piperidin-3-yl]carbonyl}-1,2,3,4-tetrahydroisoquinolin-6-amine] | 101 to 20000 nM |
| CCC[C@H]1N(C(=O)c2ncccc2C(F)(F)F)CCC[C@@]1(Oc1csc(C(F)(F)F)c1)C(=O)N1Cc2ccc(F)cc2C[C@@H]1C(=O)N1CCC(O)CC1 [Compound A149, 1-{[(3R)-6-fluoro-2-{[(2R,3S)-2-propyl-1-{[3-(trifluoromethyl)pyridin-2-yl]carbonyl}-3-{[5-(trifluoromethyl)thiophen-3-yl]oxy}piperidin-3-yl]carbonyl}-1,2,3,4-tetrahydroisoquinolin-3-yl]carbonyl}piperidin-4-ol] | 1 to 100 nM |
| CCC[C@H]1N(C(=O)c2ncccc2C(F)(F)F)CCC[C@@]1(Oc1csc(C(F)(F)F)c1)C(=O)N1CCc2cc(Cl)ccc2C1CN1CCOCC1 (stereo partly drawn) [Compound A12, 6-chloro-1-(morpholin-4-ylmethyl)-2-{[(2R,3S)-2-propyl-1-{[3-(trifluoromethyl)pyridin-2-yl]carbonyl}-3-{[5-(trifluoromethyl)thiophen-3-yl]oxy}piperidin-3-yl]carbonyl}-1,2,3,4-tetrahydroisoquinoline] | 1 to 100 nM |
| CCC[C@H]1N(C(=O)c2ncccc2C(F)(F)F)CCC[C@@]1(Oc1csc(C(F)(F)F)c1)C(=O)N1CCc2cc(F)ccc2C1CCC(=O)O (stereo partly drawn) [Compound A42, 3-(6-fluoro-2-{[(2R,3S)-2-propyl-1-{[3-(trifluoromethyl)pyridin-2-yl]carbonyl}-3-{[5-(trifluoromethyl)thiophen-3-yl]oxy}piperidin-3-yl]carbonyl}-1,2,3,4-tetrahydroisoquinolin-1-yl)propanoic acid] | 1 to 100 nM |
| CCC[C@H]1N(C(=O)c2ncccc2C(F)(F)F)CCC[C@@]1(Oc1csc(C(F)(F)F)c1)C(=O)N1CCc2cc(Cl)ccc2C1CC(C(=O)O)C(C)C (stereo partly drawn) [Compound A179, 2-[(6-chloro-2-{[(2R,3S)-2-propyl-1-{[3-(trifluoromethyl)pyridin-2-yl]carbonyl}-3-{[5-(trifluoromethyl)thiophen-3-yl]oxy}piperidin-3-yl]carbonyl}-1,2,3,4-tetrahydroisoquinolin-1-yl)methyl]-3-methylbutanoic acid] | 1 to 100 nM |
| CCC[C@H]1N(C(=O)c2ncccc2C(F)(F)F)CCC[C@@]1(Oc1csc(C(F)(F)F)c1)C(=O)N1CCc2cc(F)ccc2C1CCCCC(=O)O (stereo partly drawn) [Compound A43, 5-(6-fluoro-2-{[(2R,3S)-2-propyl-1-{[3-(trifluoromethyl)pyridin-2-yl]carbonyl}-3-{[5-(trifluoromethyl)thiophen-3-yl]oxy}piperidin-3-yl]carbonyl}-1,2,3,4-tetrahydroisoquinolin-1-yl)pentanoic acid] | 1 to 100 nM |
| CCC[C@H]1N(C(=O)c2ncccc2C(F)(F)F)CCC[C@@]1(Oc1csc(C(F)(F)F)c1)C(=O)N1Cc2ccc(Cl)cc2C[C@@H]1CCCN1CCOCC1 [Compound A155, (3S)-6-chloro-3-(3-morpholin-4-ylpropyl)-2-{[(2R,3S)-2-propyl-1-{[3-(trifluoromethyl)pyridin-2-yl]carbonyl}-3-{[5-(trifluoromethyl)thiophen-3-yl]oxy}piperidin-3-yl]carbonyl}-1,2,3,4-tetrahydroisoquinoline] | 1 to 100 nM |
| CCC[C@H]1N(C(=O)c2ncccc2C(F)(F)F)CCC[C@@]1(Oc1ccc(OC(F)(F)F)cc1)C(=O)N1CCc2cc(Cl)ccc2[C@@H]1CCC(=O)O [Compound A111] | 1 to 100 nM |
| CCC[C@H]1N(C(=O)c2ncccc2C(F)(F)F)CCC[C@@]1(Oc1csc(C(F)(F)F)c1)C(=O)N1CCc2cc(Cl)ccc2C1C#N (stereo partly drawn) [Compound A78, 6-chloro-2-{[(2R,3S)-2-propyl-1-{[3-(trifluoromethyl)pyridin-2-yl]carbonyl}-3-{[5-(trifluoromethyl)thiophen-3-yl]oxy}piperidin-3-yl]carbonyl}-1,2,3,4-tetrahydroisoquinoline-1-carbonitrile] | 101 to 20000 nM |
